Patent US9783537B2, “3-(4-ethylnylphenyl) pyridopyrimidinone compounds and process for preparation thereof useful as potential anticancer agents” (Council of Scientific & Industrial Research, priority 2013, dated 2017)
Like-named read-outs stand apart in the source and are kept apart here.

What was measured:
HL-60(TB) = assay: SRB 48 h growth assay, Leukemia HL-60(TB); format: cell-based, human
HOP-92 = assay: SRB 48 h growth assay, Non-small Cell Lung HOP-92; format: cell-based, human; settings: HOP-92, Non-small Cell Lung
NCI-H226 = assay: SRB 48 h growth assay, Non-small Cell Lung NCI-H226; format: cell-based, human; settings: for GI50: Homo sapiens
HCT-116 = assay: SRB 48 h growth assay, Colon HCT-116; format: cell-based, human; settings: HCT-116, Colon
KM12 = assay: SRB 48 h growth assay, Colon KM12; format: cell-based, human
SW-620 = assay: SRB 48 h growth assay, Colon SW-620; format: cell-based, human; settings: SW-620, Colon; for GI50 / CC50: Homo sapiens; for CC50: read-out: Log10 LC50 (converted)
SNB-19 = assay: SRB 48 h growth assay, CNS SNB-19; format: cell-based, human; settings: SNB-19, CNS; for CC50 / GI50: Homo sapiens; for CC50: read-out: Log10 LC50 (converted)
SNB-75 = assay: SRB 48 h growth assay, CNS SNB-75; format: cell-based, human; settings: SNB-75, CNS
LOX IMVI = assay: SRB 48 h growth assay, Melanoma LOX IMVI; format: cell-based, human
SK-MEL-5 = assay: SRB 48 h growth assay, Melanoma SK-MEL-5; format: cell-based, human; settings: SK-MEL-5, Melanoma
UACC-257 = assay: SRB 48 h growth assay, Melanoma UACC-257; format: cell-based, human; settings: UACC-257, Melanoma
OVCAR-3 = assay: SRB 48 h growth assay, Ovarian OVCAR-3; format: cell-based, human; settings: OVCAR-3, Ovarian
OVCAR-8 = assay: SRB 48 h growth assay, Ovarian OVCAR-8; format: cell-based, human; settings: OVCAR-8, Ovarian; for GI50 / CC50: Homo sapiens; for CC50: read-out: Log10 LC50 (converted)
NCI/ADR-RES = assay: SRB 48 h growth assay, Ovarian NCI/ADR-RES; format: cell-based, human; settings: for GI50 / CC50: Homo sapiens; for CC50: read-out: Log10 LC50 (converted)
SK-OV-3 = assay: SRB 48 h growth assay, Ovarian SK-OV-3; format: cell-based, human; settings: SK-OV-3, Ovarian; for GI50 / CC50: Homo sapiens; for CC50: read-out: Log10 LC50 (converted)
MDA-MB-468 = assay: SRB 48 h growth assay, Breast MDA-MB-468; format: cell-based, human; settings: MDA-MB-468, Breast
[1] = test system: six leukemia cancer cell lines (CCRF-CEM, HL-60, K-562, MOLT-4, SR and RPMI-8226); assay: in vitro anticancer activity, leukemia panel; format: cell-based; settings: Homo sapiens, exposure at least 48 h, read-out: GI50, range over panel
[2] = in vitro anticancer activity, non-small cell lung panel; format: cell-based; settings: Homo sapiens; nine non-small cell lung cancer cell lines, exposure at least 48 h; read-out: GI50, range over panel
[3] = in vitro anticancer activity, melanoma panel; format: cell-based; settings: Homo sapiens; nine melanoma cell lines, exposure at least 48 h; read-out: GI50, range over panel
[4] = test system: eight renal cancer cell line (786-0, A498, ACHN, CAKI-1, SN12C, TK-10, UO-31 and RXF 393); assay: in vitro anticancer activity, renal panel; format: cell-based; settings: Homo sapiens; eight renal cancer cell lines, exposure at least 48 h; read-out: in vitro anticancer activity, range over panel
NCI-H322M = assay: SRB 48 h growth assay, Non-small Cell Lung NCI-H322M; format: cell-based, human
COLO 205 = assay: SRB 48 h growth assay, Colon COLO 205; format: cell-based, human; settings: COLO 205, Colon
SF-539 = assay: SRB 48 h growth assay, CNS SF-539; format: cell-based, human; settings: SF-539, CNS
SK-MEL-28 = assay: SRB 48 h growth assay, Melanoma SK-MEL-28; format: cell-based, human; settings: SK-MEL-28, Melanoma
IGROV1 = assay: SRB 48 h growth assay, Ovarian IGROV1; format: cell-based, human
UO-31 = assay: SRB 48 h growth assay, Renal UO-31; format: cell-based, human; settings: UO-31, Renal
[5] = Homo sapiens, read-out: Growth Inhibition GI50
[6] = Homo sapiens, read-out: Log10 GI50 (converted)
[7] = read-out: Growth Inhibition GI50
[8] = read-out: Log10 GI50 (converted)
[9] = Homo sapiens, read-out: Log10 LC50 (converted)

Compound: C#Cc1ccc(-n2c(/C=C/c3ccc(Cl)c(F)c3)nc3ncccc3c2=O)cc1 [4g, (E)-2-(4-chloro-3-fluorostyryl)-3-(4-ethynylphenyl)pyrido[2,3-d]pyrimidin-4(3H)-one]
- Log10 TGI50 (HL-60(TB)): >−4.00
- GI50 (HOP-92; [5]): 0.2 µM
- GI50 (HOP-92; [6]): 0.204 µM
- GI50 (NCI-H226; [7]): 0.35 µM
- GI50 (NCI-H226; [8]): 0.355 µM
- GI50 (HCT-116; [5]): 0.33 µM
- GI50 (HCT-116; [6]): 0.331 µM
- GI50 (KM12; [5]): 0.34 µM
- GI50 (KM12; [6]): 0.347 µM
- GI50 (SW-620; [7]): 0.37 µM
- GI50 (SW-620; [8]): 0.38 µM
- CC50 (SW-620): > 100 µM
- CC50 (SNB-19): > 100 µM
- GI50 (SNB-75; [5]): 0.34 µM
- GI50 (SNB-75; [6]): 0.339 µM
- GI50 (LOX IMVI; [5]): 0.26 µM
- GI50 (LOX IMVI; [6]): 0.263 µM
- GI50 (SK-MEL-5; [5]): 0.22 µM
- GI50 (SK-MEL-5; [6]): 0.229 µM
- GI50 (UACC-257; [5]): 0.54 µM
- GI50 (UACC-257; [6]): 0.537 µM
- GI50 (OVCAR-3; [5]): 0.3 µM
- GI50 (OVCAR-3; [6]): 0.302 µM
- GI50 (OVCAR-8; [7]): 0.35 µM
- GI50 (OVCAR-8; [8]): 0.355 µM
- CC50 (OVCAR-8): > 100 µM
- GI50 (NCI/ADR-RES; [7]): 0.41 µM
- GI50 (NCI/ADR-RES; [8]): 0.417 µM
- CC50 (NCI/ADR-RES): > 100 µM
- GI50 (SK-OV-3; [7]): 0.34 µM
- GI50 (SK-OV-3; [8]): 0.347 µM
- CC50 (SK-OV-3): > 100 µM
- GI50 (MDA-MB-468; [5]): 0.24 µM
- GI50 (MDA-MB-468; [6]): 0.245 µM
- GI50 [1]: 0.25 to 0.54 µM
- GI50 [2]: 0.2 to 0.58 µM
- GI50 [3]: 0.19 to 0.54 µM
- GI50 [4]: 0.28 to 0.36 µM

Compound: C#Cc1ccc(-n2c(/C=C/c3cc(OC)c(OC)c(OC)c3)nc3ncccc3c2=O)cc1 [4q, (E)-3-(4-Ethynylphenyl)-2-(3,4,5-trimethoxystyryl)pyrido[2,3-d]pyrimidin-4(3H)-one]
- Log10 TGI50 (HL-60(TB)): −4.59
- GI50 (HL-60(TB); [5]): 3.84 µM
- GI50 (HL-60(TB); [6]): 3.8 µM
- CC50 (HL-60(TB); [9]): > 100 µM
- Log10 TGI50 (HOP-92): −5.11
- GI50 (HOP-92; [5]): 2.31 µM
- GI50 (HOP-92; [6]): 2.29 µM
- CC50 (HOP-92; [9]): > 100 µM
- Log10 TGI50 (NCI-H226): >−4.00
- GI50 (NCI-H226; [7]): 12.9 µM
- GI50 (NCI-H226; [8]): 12.9 µM
- Log10 TGI50 (NCI-H322M): >−4.00
- GI50 (NCI-H322M; [5]): 14.1 µM
- GI50 (NCI-H322M; [6]): 14.1 µM
- CC50 (NCI-H322M; [9]): > 100 µM
- Log10 TGI50 (COLO 205): −4.92
- GI50 (COLO 205; [5]): 3.19 µM
- GI50 (COLO 205; [6]): 3.16 µM
- CC50 (COLO 205; [9]): > 100 µM
- Log10 TGI50 (HCT-116): >−4.00
- GI50 (HCT-116; [5]): 5.17 µM
- GI50 (HCT-116; [6]): 5.13 µM
- CC50 (HCT-116; [9]): > 100 µM
- Log10 TGI50 (KM12): −4.89
- GI50 (KM12; [5]): 3.32 µM
- GI50 (KM12; [6]): 3.31 µM
- CC50 (KM12; [9]): > 100 µM
- GI50 (SW-620; [7]): 3.29 µM
- GI50 (SW-620; [8]): 3.31 µM
- CC50 (SW-620): > 100 µM
- Log10 TGI50 (SW-620): −4.30
- GI50 (SF-539; [5]): 4.57 µM
- GI50 (SF-539; [6]): 4.57 µM
- CC50 (SF-539; [9]): > 100 µM
- Log10 TGI50 (SF-539): −4.42
- GI50 (SNB-19; [7]): 16.2 µM
- GI50 (SNB-19; [8]): 16.2 µM
- CC50 (SNB-19): > 100 µM
- Log10 TGI50 (SNB-19): >−4.00
- GI50 (SNB-75; [5]): 3.88 µM
- GI50 (SNB-75; [6]): 3.89 µM
- CC50 (SNB-75; [9]): > 100 µM
- Log10 TGI50 (SNB-75): >−4.00
- Log10 TGI50 (LOX IMVI): −4.19
- GI50 (LOX IMVI; [5]): 4.61 µM
- GI50 (LOX IMVI; [6]): 4.57 µM
- CC50 (LOX IMVI; [9]): > 100 µM
- GI50 (SK-MEL-28; [5]): 34.6 µM
- GI50 (SK-MEL-28; [6]): 34.7 µM
- CC50 (SK-MEL-28; [9]): > 100 µM
- Log10 TGI50 (SK-MEL-28): >−4.00
- GI50 (SK-MEL-5; [5]): 1.78 µM
- GI50 (SK-MEL-5; [6]): 1.78 µM
- CC50 (SK-MEL-5; [9]): 18.2 µM
- Log10 TGI50 (SK-MEL-5): −5.36
- GI50 (UACC-257; [5]): 9.74 µM
- GI50 (UACC-257; [6]): 9.77 µM
- CC50 (UACC-257; [9]): > 100 µM
- Log10 TGI50 (UACC-257): >−4.00
- Log10 TGI50 (IGROV1): >−4.00
- GI50 (IGROV1; Homo sapiens, IGROV-1, read-out: Growth Inhibition GI50): 6.08 µM
- GI50 (IGROV1; Homo sapiens, IGROV-1, read-out: Log10 GI50 (converted)): 6.03 µM
- CC50 (IGROV1; Homo sapiens, IGROV-1, read-out: Log10 LC50 (converted)): > 100 µM
- GI50 (OVCAR-3; [5]): 2.33 µM
- GI50 (OVCAR-3; [6]): 2.34 µM
- CC50 (OVCAR-3; [9]): > 100 µM
- Log10 TGI50 (OVCAR-3): −5.19
- GI50 (OVCAR-8; [7]): 9.67 µM
- GI50 (OVCAR-8; [8]): 9.77 µM
- CC50 (OVCAR-8): > 100 µM
- Log10 TGI50 (OVCAR-8): >−4.00
- Log10 TGI50 (NCI/ADR-RES): −4.46
- GI50 (NCI/ADR-RES; [7]): 3.61 µM
- GI50 (NCI/ADR-RES; [8]): 3.63 µM
- CC50 (NCI/ADR-RES): > 100 µM
- GI50 (SK-OV-3; [7]): 5.33 µM
- GI50 (SK-OV-3; [8]): 5.37 µM
- CC50 (SK-OV-3): > 100 µM
- Log10 TGI50 (SK-OV-3): −4.11
- GI50 (UO-31; [5]): 4.09 µM
- GI50 (UO-31; [6]): 4.07 µM
- CC50 (UO-31; [9]): > 100 µM
- Log10 TGI50 (UO-31): >−4.00
- GI50 (MDA-MB-468; [5]): 2.83 µM
- GI50 (MDA-MB-468; [6]): 2.82 µM
- CC50 (MDA-MB-468; [9]): > 100 µM
- Log10 TGI50 (MDA-MB-468): >−4.00
- GI50 [1]: 1.39 to 3.01 µM
- GI50 [2]: 1.32 to 3.9 µM
- GI50 [3]: 1.49 to 2.27 µM
